Non-standard residues stand in square brackets, D forms with d. Residues, ends and D or L forms follow the SMILES beside them.
What was measured:
human MOR [1] = molecular target: T1, human MOR (Homo sapiens, UniProt P35372); experiment: [35S]GTPγS binding assay, CHO-hMOR cell membranes; assay type: biochemical; conditions: for % stim.: relative to reference MOR agonist DAMGO, mean ± SEM, n = 3–4
T1 construct: expressed in transfected cells; host or cells: CHO cells (CHO-hMOR), gift of Dr. Lawrence Toll, SRI International
Excerpt: All data are presented as mean ± SEM. A p < 0.05 was considered statistically significant.

human KOR = molecular target: T2, human KOR (Homo sapiens, UniProt P41145); experiment: Radioligand competition binding, [3H]U69,593, CHO-hKOR cell membranes; conditions: for Ki: CHO-hKOR membranes, [3H]U69,593 1 nM, mean ± SEM, n = 3, read-out: Opioid Receptor Binding (Ki, nM) KOR
T2 construct: expressed in transfected cells; host or cells: CHO cells (CHO-hKOR), gift of Dr. Lawrence Toll, SRI International

human NOP receptor = molecular target: T3, human NOP receptor (Homo sapiens, UniProt P41146); experiment: Radioligand binding, [3H]nociceptin, CHO-hNOP cell membranes; conditions: for Ki: CHO-hNOP membranes, [3H]nociceptin 0.1 nM, n = 3, read-out: Opioid Receptor Binding (Ki, nM) NOP
T3 construct: expressed in transfected cells; host or cells: CHO cells (CHO-hNOP), gift of Dr. Lawrence Toll, SRI International

human MOR [2] = molecular target: T1, human MOR; experiment: Radioligand competition binding, [3H]DAMGO, CHO-hMOR cell membranes; conditions: read-out: Opioid Receptor Binding (Ki, nM) MOR
human DOR = molecular target: T4, human DOR (Homo sapiens, UniProt P41143); experiment: Radioligand competition binding, [3H]DPDPE, CHO-hDOR cell membranes
T4 construct: expressed in transfected cells; host or cells: CHO cells (CHO-hDOR), gift of Dr. Lawrence Toll, SRI International

mice [3] = experiment: Rotarod test after s.c. administration; assay type: in vivo; conditions: 7.8 and 39 µmol/kg, any time point, vs. saline
Description: (§1) Experiments were performed with male CD1 mice (8–10 weeks old, 30–35 g body weight) purchased from Janvier Labs (Le Genest-Saint-Isle, France). All animal care and experimental procedures were in accordance with the ethical guidelines for the animal welfare standards of the European Communities Council Directive (2010/63/EU) and were approved by the Committee of Animal Care of the Austrian Federal Ministry of Science and Research. Mice were group-housed (maximum of 5 animals per cage) in a temperature- (21–22 °C) and humidity-controlled (60–70%) specific pathogen-free room with a 12 h light/dark cycle and with free access to food and water. LENART01 and naloxone were prepared in sterile physiological 0.9% saline solution. Tested doses of LENART01 were 0.78, 3.9, 7.8 and 39 µmol/kg (1, 5, 10 and 50 mg/kg, respectively). LENART01 or vehicle (saline) were s.c. administered in a volume of 10 µL/g body weight.
Animals were accustomed to the equipment in two training sessions (30 min apart) one day before testing. […] The time spent on the drum was recorded for each mouse before (baseline) and after the s.c. administration of saline or test compound (i.e., 30, 60 and 120 min). […] The rotarod data are expressed as percentage (%) changes from the rotarod latencies obtained before (baseline, B) and after drug administration (test, T) and were calculated as follows: 100 × (T/B). […]

mice [4] = experiment: Naloxone-precipitated withdrawal syndrome after chronic s.c. treatment; assay type: in vivo; conditions: 7.8 µmol/kg s.c. twice daily for 5 days; naloxone 1 mg/kg s.c. two hours after last injection; vs. saline
Description: as §1, with “Tested doses of LENART01 were 0.78, 3.9, 7.8 and 39 µmol/kg (1, 5, 10 and 50 mg/kg, respectively). LENART01 or vehicle (saline) were s.c. administered in a volume of 10 µL/g body weight.” left out
(§2) Opioid physical dependence was assessed using naloxone-induced withdrawal syndrome in mice as described previously. […] Animals were immediately placed in clear acrylic cylinders, and signs of opioid withdrawal were recorded for 15 min. Monitored behaviors included vertical jumps, paw tremor, head shakes, urine output, the presence/absence of diarrhea, feces output and body weight loss. For each mouse, a global withdrawal score was calculated by summing the values obtained for each sign (one point was assigned to every 3 jumps and 5 paw tremors, respectively, whereas all other signs were given the absolute values recorded during the test). […]

[5] = Body weight changes during chronic s.c. treatment; assay type: in vivo, mice; conditions: chronic administration of 7.8 µmol/kg s.c. twice daily for 5 days, vs. saline
Description: as §1, with “Tested doses of LENART01 were 0.78, 3.9, 7.8 and 39 µmol/kg (1, 5, 10 and 50 mg/kg, respectively). LENART01 or vehicle (saline) were s.c. administered in a volume of 10 µL/g body weight.” left out
as §2

[6] = Pharmacokinetic study: detection in brain homogenate by LC-DAD-MS (BBB permeability); assay type: in vivo; conditions: 7.8 and 39 µmol/kg s.c., mice, brains two hours after treatment
Description: as §1
Two hours after the s.c. administration of LENART01 (doses of 7.8 and 39 µmol/kg), the mice were sacrificed and the brains were removed, washed with sterile physiological 0.9% saline and frozen in dry ice until use. […] The MS spectra were recorded in the negative ion mode only. The UV spectra were recorded over the range of 200–600 nm. […] The presence of the analyzed compound was checked by the monitoring of its pseudomolecular ion eluting at ca. 10 min. […]

mice [7] = conditions: s.c., 31 µmol/kg (10 mg/kg); cited from earlier work
mice [8] = conditions: repeated s.c. administration, 15 µmol/kg (5 mg/kg); cited from earlier work

## C[C@@H](NC(=O)[C@@H](N)Cc1ccc(O)cc1)C(=O)NCC(=O)N(C)[C@@H](Cc1ccccc1)C(=O)NCCO [DAMGO, reference compound]
Human MOR [1]
  % stim.: 100%

## C[C@@H](NC(=O)[C@@H](N)Cc1ccc(O)cc1)C(=O)N[C@@H](Cc1ccccc1)C(=O)NCC(=O)N[C@@H](Cc1ccc(O)cc1)C(=O)N1CCC[C@H]1C(=O)N[C@@H](CO)C(N)=O [Dermorphin, reference compound]
Human KOR
  Ki: 2710 ± 873 nM
Human NOP receptor
  Ki: > 10000 nM
Human NOP receptor; at the concentration of 10 µM, [3H]nociceptin
  Specific binding to human NOP receptor: no substantial binding
Human MOR [1]
  % stim.: 104 ± 8%

## CSCC[C@H](NC(=O)[C@H](Cc1ccccc1)NC(=O)[C@H](Cc1c[nH]cn1)NC(=O)CNC(=O)[C@H](CO)NC(=O)[C@@H]1CCCN1C(=O)[C@H](Cc1ccc(O)cc1)NC(=O)CNC(=O)[C@H](Cc1ccccc1)NC(=O)[C@@H](C)NC(=O)[C@@H](N)Cc1ccc(O)cc1)C(N)=O [LENART01] (H-Y[dA]FGYPSGHFM-NH2)
Human MOR [2]
  Ki: 11 ± 1.5 nM
Human DOR; CHO-hDOR membranes, [3H]DPDPE 1 nM, mean ± SEM, n = 3, read-out: Opioid Receptor Binding (Ki, nM) DOR
  Ki: 227 ± 47 nM
Human DOR; Ki ratio DOR/MOR
  Selectivity Ki Ratios DOR/MOR: 21
Human KOR
  Ki: 1310 ± 226 nM
Human KOR; Ki ratio KOR/MOR
  Selectivity Ki Ratios KOR/MOR: 119
Human NOP receptor
  Ki: > 10000 nM
Human NOP receptor; Ki ratio NOP/MOR
  Selectivity Ki Ratios NOP/MOR: >900
Human MOR [1]
  EC50: 48.5 ± 10.6 nM
  % stim.: 110 ± 7%
Mice [3]
  Effect on rotarod latencies (motor behavior): no significant alterations in the rotarod latencies
Mice [4]
  Naloxone-precipitated withdrawal signs: did not induce withdrawal signs
[5]
  Effect on body weights: did not have any significant effect on the body weights
[6]
  Transport across the BBB (signal in brain homogenate): no detectable signal

## CN1CC[C@]23c4c5ccc(O)c4O[C@H]2[C@@H](O)C=C[C@H]3[C@H]1C5 [morphine]
Mice [7]
  Effect on time on the rotarod: significantly reduced time on the rotarod
Mice [8]
  Naloxone-induced withdrawal syndrome: significant naloxone-induced withdrawal syndrome

Reference: PMC11012005 (International Journal of Molecular Sciences, 2024)
